Results on two compounds are retold here after US12285403B2, “A2-73 as a therapeutic for insomnia, anxiety and agitation” (Anavex Life Sciences Corp., priority 2016, dated 2025).

Molecules are shown by their SMILES.

For assay [1], the system named is insomnia, anxiety or agitation. Kind of assay: Single-patient therapy Examples 1-10 (insomnia, anxiety, agitation). It counts as in vivo, human. How it is done:
A person presents as suffering from maintenance insomnia for one year. They are started on oral A2-73 at 10 mg/day. […] They are currently maintained on 10 mg of A2-73 and is sleeping well. A person presents with anxiety of three years' duration. They are administered A2-73 at 20 mg oral per day every other day. […] They are maintained on this dosing schedule for 60 days. […] They are treated with 30 mg A2-73 oral daily for 30 days. […] They are currently maintained at that dosage and is not anxious. A person presents with MCI and reports maintenance insomnia for one year. They are started on oral A1-41 at 10 mg/day. […] They are currently maintained on 10 mg of A1-41 and is sleeping well. The patient is a person with diagnosed AD and reported anxiety of three years' duration. They are administered A19-144 at 20 mg oral per day every day for 90 days. […] They are chronically maintained on this dosing schedule. A person diagnosed with mild cognitive impairment presents as suffering from maintenance insomnia for one year. They are started on oral A2-73 at 50 mg/day. […] They are currently maintained on 50 mg of A2-73 daily and is sleeping well. A person diagnosed with Alzheimer's disease presents with insomnia/WASO and agitation and a systolic blood pressure of 145 mm Hg. They are started on oral A2-73 at 30 mg/day. […] They are also less agitated. Their results on all cognitive tests and HAM-D improve. They are currently maintained on 30 mg of A2-73 daily. A person diagnosed with Alzheimer's disease presents with insomnia/WASO and agitation. They are started on oral A2-73 at 100 mg/day. […] They are also less agitated. Their results on all cognitive tests and HAM-D improve. They are currently maintained on 100 mg of A2-73 every other day. A person diagnosed with Alzheimer's disease presents with insomnia/WASO and agitation. They are started on oral A19-144 at 50 mg/day. […] They are also less agitated. Their results on all cognitive tests and HAM-D improve. They are currently maintained on 50 mg of A19-144 daily. A person diagnosed with Alzheimer's disease presents with insomnia/WASO and agitation. They are started on oral A1-41 at 30 mg/day. […] They are also less agitated. Their results on all cognitive tests and HAM-D improve. They are currently maintained on 30 mg of A1-41 daily.

Assay [2] has as its system muscarinic acetylcholine receptors. The conditions noted are these: 'is believed to bind'; cited from earlier work.
The target of a further assay is sigma-1 receptors (Homo sapiens, UniProt Q99720). The conditions noted are these: 'is believed to bind'; cited from earlier work.
The mark [3] stands for this setting: Example 10: oral 30 mg/day, 60 days.
The mark [4] stands for this setting: Example 9: oral 50 mg/day, 30 days.

Sequence of sigma-1 receptors (Q99720 whole entry): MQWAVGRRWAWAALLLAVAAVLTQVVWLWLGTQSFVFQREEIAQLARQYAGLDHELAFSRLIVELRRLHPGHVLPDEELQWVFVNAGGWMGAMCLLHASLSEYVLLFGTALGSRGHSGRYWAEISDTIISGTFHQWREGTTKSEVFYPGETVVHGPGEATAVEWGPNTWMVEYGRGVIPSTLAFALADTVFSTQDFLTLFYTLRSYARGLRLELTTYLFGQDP

As for `CN(C)CC1COC(c2ccccc2)(c2ccccc2)C1.Cl` (stereo not shown) [A1-41, tetrahydro-N,N-dimethyl-5,5-diphenyl-3-furanmethanamine hydrochloride], the “Sleep at follow up (maintenance insomnia)” value in assay [1] (Example 4: person with MCI, oral 10 mg/day, 30 days) is “sleeping well”. In addition, in assay [1] (setting [3]), the “Agitation at follow up” value is reported as “less agitated”; the “Results on all cognitive tests and HAM-D” value was “improve”. Besides, the “Sleep at follow up (insomnia/WASO)” value in assay [1] (Example 10: person with AD, oral 30 mg/day, 60 days) is on record as “sleeping well through the night”.
For `CNCC1CCOC1(c1ccccc1)c1ccccc1.Cl` (stereo not shown) [A19-144, 1-(2,2-diphenyltetrahydrofuran-3-yl)-N-methylmethanamine hydrochloride], the Anxiety entry in assay [1] (Example 5: person with AD, 20 mg oral every day, after two days of dosing) was “Resolution of the anxiety”. Besides, in assay [1] (setting [4]), the “Agitation at follow up” value is listed as “less agitated”; the “Results on all cognitive tests and HAM-D” value is on record as “improve”. Besides, in assay [1] (Example 9: person with AD, oral 50 mg/day, 30 days), the “Sleep at follow up (insomnia/WASO)” value is reported as “sleeping well through the night”. Also, the “Affinity for muscarinic acetylcholine receptors” value in assay [2] is listed as “low micromolar range”. Besides, the “Affinity for sigma-1 receptors” value at sigma-1 receptors is “low micromolar range”.
